Reference: patent US20110152176A1, “AGR-MEDIATED INHIBITION AND DISPERSAL OF BIOFILMS” (priority 2008, published 2011)
Ends that are not written are not given here.

Tests used:
extracellular proteases [1] = assay: Protease activity of AIP-I detached biofilm effluent with inhibitors or activators (Azocoll); format: biochemical, Staphylococcus aureus; settings: EGTA 1 mM, PMSF 10 mM (method: 200 mM), DTT 1 mM
Description: (§1) Monitoring protease activity. Milk agar plates for detection of protease activity consisted of 3 g/L Tryptic Soy broth, 20 g/L non-fat dry milk, and 15 g/L agar. To determine relative protease activities of strains, assays were performed as described previously using the Azocoll (Calbiochem) reagent (Fournier et al., 2001). For measuring protease levels in biofilm effluents, 100 mL of effluent was collected on ice (about 12 hours) after AIP addition to the biofilm medium. Cells were removed from the effluents through centrifugation and filtering, and ammonium sulfate was added to 60% over one hour at 4° C. to concentrate proteins. The precipitated proteins were pelleted by centrifugation at 19,000 rpm for 30 min, and the pellet was washed and resuspended in 1 ml with 10 mM Tris pH 7.5. For the protease assay, the reaction mixture was supplemented with either 1 mM EGTA, 200 mM PMSF, or 1 mM DTT to gauge relative levels of protease classes.
There are 10 known extracellular proteases produced by most S. aureus strains and expression of all these enzymes is controlled by the agr system (Novick, 2003; Dunman et al., 2001; Ziebandt et al., 2004). These 10 proteases include the metalloprotease aureolysin (aur), two cysteine proteases (scpA and sspB), and seven serine proteases (sspA (V8) and sp1ABCDEF) (Dubin, 2002). To elucidate what class(es) of proteases are prevalent in AIP-treated biofilms, the effluent from a detaching biofilm was assayed for protease activity in the presence of protease inhibitors or activating agents.

S. aureus SH1000 biofilm = assay: Flow cell biofilm detachment (CLSM, COMSTAT biomass, effluent CFU); format: cell-based, Staphylococcus aureus; settings: for biomass detached: day 2 vs day 4
Description: (§2) Biofilm experiments. Microtiter plate biofilms were performed as described (Shanks et al., 2005) except that the plates were incubated at 37° C. with shaking at 200 rpm for 12 hours. For flow cell experiments, AIPs were generated using the DnaB intein method, and the AIP concentrations were determined as previously described (Malone et al., 2007). AIPs stocks (20 mM) were stored in 100 mM phosphate (pH 7), 50 mM NaC1, 1 mM tris(2-carboxyethyl) phosphine (TCEP) and were diluted into the biofilm flow medium to a final concentration of 50 nM. When required, […] of erythromycin and/or chloramphenicol were added to the flow cell media to maintain plasmids. The growth medium for flow cell biofilms consisted of 2% TSB plus 0.2% glucose unless otherwise indicated. Flow cell biofilm experiments and confocal microscopy were performed as previously described (Yarwood et al., 2004). Flow cells were inoculated with overnight cultures diluted 1:100 in sterile water and laminar flow ([…]) was initiated after one hour incubation. Confocal microscopy was performed using a Radiance 2100 system (Biorad) with a Nikon Eclipse E600 microscope. Confocal images were processed using Velocity software (Improvision, Lexington, Mass.). Biofilm biomass was quantified with the COMSTAT program (Heydorn et al., 2000) and percent biomass detached was calculated by subtracting biomass present at day 4 from day 2. To quantitate the number of bacteria detaching from a biofilm, 1 ml of flow cell effluent was collected on ice at indicated time points. The collected effluent was vortexed and sonicated in a water bath for 10 minutes to break up clumps, and serial dilutions were plated on TSA plates to determine colony forming units (CFUs). For the Proteinase K detachment experiments, the enzyme (Sigma-Aldrich) was suspended in water and added to the media reservoir at a final concentration of 2 mg/ml.
AIP detaches S. aureus biofilms. To investigate the role of the agr system in established biofilms, the inventors developed strategies to modulate level of agr activity within a biofilm. Initially, media supplementation experiments were performed using purified AIP signal in order to place the agr system under external control. The inventors recently developed a new method for AIP biosynthesis (Malone et al., 2007), enabling the production of sufficient signal levels for flow cell experiments. Through exogenous AIP addition, they could test wild-type strains and avoid any potential complications of constructed agr deletion mutants. For this approach, established flow cell biofilms were prepared using S. aureus SH1000 constitutively expressing RFP with plasmid pAH9. The flow cell media was supplemented with glucose to attenuate agr expression (Regassa et al., 1992), allowing cell attachment and biofilmdevelopment. After two days, either 1 mL of buffer (100 mM phosphate [pH 7], 50 mMNaCl, 1 mMTCEP; FIG. 2A) or 1 mL of […] in buffer (FIG. 2B and Video S1) was diluted 1000-fold (50 nM final concentration) into the growth media. Using the inventors' synthesized AIP-I in dose-response curves (Malone et al., 2007), the inventors estimate the amount of AIP-I in supernatants of TSB broth cultures (OD600 1.0-1.3) reaches approximately 400 nM (data not shown), indicating the 50 nM level used for the biofilm experiments is within a relevant concentration range. […] To confirm that AIP-I caused detachment, the inventors counted viable S. aureus cells in the effluent media (FIG. 2C). […] In contrast, the number of bacteria in the biofilm effluent without AIP-I addition remained relatively constant.

[2] = test system: S. aureus SH1000 biofilm and detached bacteria; assay: Susceptibility of biofilm and detached bacteria to rifampicin killing; format: cell-based, Staphylococcus aureus; settings: six hours
Description: Antibiotic sensitivity. S. aureus biofilms were grown for two days in a flow chamber lined with removable polycarbonate coupons (Flow Cell FC271, Biosurface Technologies, Bozeman Mont.). Biofilm effluents were collected on ice about 24 hours after AIP-I addition. In parallel, coupons with biofilm growth were removed from flow cells not exposed to AIP-I. Both detached bacteria and the biofilms were exposed to the indicated levels of rifampicin for six hours. Subsequently, cells were vortexed, and the coupons were sonicated in a water bath to break up the biofilm or cell clumps. Serial dilutions were plated on TSA to determine surviving CFU's.
Detached S. aureus cells regain antibiotic sensitivity. Biofilm growth of S. aureus increases resistance to antimicrobials when compared to the planktonic growth mode (Fux et al., 2004; Yarwood et al., 2004). This Biofilm-mediated resistance hinders treatment of many chronic S. aureus biofilm related infections, including endocarditis, osteomyelitis, and indwelling medical device infections (Parsek and Singh, 2003; Costerton et al., 2003). Therefore, the inventors asked whether AIP-dispersed bacteria regained sensitivity to a clinically relevant antibiotic, rifampicin. To test this, the inventors collected detached cells from an AIP-treated biofilm effluent and compared resistance to intact biofilms exposed to different levels of rifampicin. […]

[3] = test system: FRI1169 (agr Type I) biofilm; assay: Flow cell biofilm detachment, agr-I strain; format: cell-based, Staphylococcus aureus; settings: 2-day old biofilm, 50 nM cognate AIP, over 48 hours
Description: as §2, with “Confocal microscopy was performed using a Radiance 2100 system (Biorad) with a Nikon Eclipse E600 microscope. Confocal images were processed using Velocity software (Improvision, Lexington, Mass.).” left out, “The collected effluent was vortexed and sonicated in a water bath for 10 minutes to break up clumps, and serial dilutions were plated on TSA plates to determine colony forming units (CFUs). For the Proteinase K detachment experiments, the enzyme (Sigma-Aldrich) was suspended in water and added to the media reservoir at a final concentration of 2 mg/ml.” left out

agr P3 promoter = assay: agr P3-GFP reporter (pDB59) expression in flow cell biofilms; format: cell-based, Staphylococcus aureus
Description: Strains and growth conditions. The bacterial strains and plasmids used in this study are described in Table 1. S. aureus or Escherichia coli were grown in tryptic soy broth (TSB) or on tryptic soy agar (TSA) with the appropriate antibiotics for plasmid selection or maintenance (erythromycin […]; chloramphenicol 10 μg/ml; tetracycline 5 μg/ml) and incubated at 37° C. Plasmid DNA was prepared from E. coli and transformed by electroporation into S. aureus RN4220 as described (Schenk and Laddaga, 1992). Plasmids were moved from RN4220 into other S. aureus strains by transduction with bacteriophage a80 (Novick, 1991) or by purifying the plasmid DNA and transformed by electroporation into appropriate strains. To move sspA and sp1ABCDEF mutations into appropriate genetic backgrounds, phage transduction with a80 was used as described (Novick, 1991). To construct the Daur mutation, the pKOR1-aur plasmid was used as described (Kavanaugh et al., 2007). Fluorescence measurements with S. aureus strains containing pDB59 were performed as previously described (Malone et al., 2007).
(§3) Biofilm experiments. Microtiter plate biofilms were performed as described (Shanks et al., 2005) except that the plates were incubated at 37° C. with shaking at 200 rpm for 12 hours. For flow cell experiments, AIPs were generated using the DnaB intein method, and the AIP concentrations were determined as previously described (Malone et al., 2007). AIPs stocks (20 mM) were stored in 100 mM phosphate (pH 7), 50 mM NaC1, 1 mM tris(2-carboxyethyl) phosphine (TCEP) and were diluted into the biofilm flow medium to a final concentration of 50 nM. When required, […] of erythromycin and/or chloramphenicol were added to the flow cell media to maintain plasmids. […] Biofilm biomass was quantified with the COMSTAT program (Heydorn et al., 2000) and percent biomass detached was calculated by subtracting biomass present at day 4 from day 2. To quantitate the number of bacteria detaching from a biofilm, 1 ml of flow cell effluent was collected on ice at indicated time points. […]

extracellular proteases [4] = assay: Protease activity in biofilm effluents after AIP addition (Azocoll); format: cell-based, Staphylococcus aureus; settings: for protease activity in biofilm effluent relative to biofilm without AIP: wild-type SH1000 biofilm supplemented with AIP
Description: as §1
If S. aureus proteases have a role in detachment, proteinase K should be able to disperse an established biofilm. […] With this preliminary observation, the inventors measured the levels of protease activity in effluents from biofilms with and without AIP-I addition using Azocoll (azo dye-impregnated collagen) reagent. […] With the addition of activating AIP-I, the protease activity increased approximately five-fold compared to a biofilm with no AIP-I treatment.

[5] = test system: SA502a (agr Type II) biofilm; assay: Flow cell biofilm detachment, agr-II strain; format: cell-based, Staphylococcus aureus; settings: 2-day old biofilm, 50 nM cognate AIP, over 48 hours
Description: as §3, with “plasmids. The growth medium for flow cell biofilms consisted of 2% TSB plus 0.2% glucose unless otherwise indicated. Flow cell biofilm experiments and confocal microscopy were performed as previously described (Yarwood et al., 2004). Flow cells were inoculated with overnight cultures diluted 1:100 in sterile water and laminar flow ([…]) was initiated after one hour incubation.” for “plasmids.”

[6] = wild-type SH1000 2-day flow cell biofilm, 50 nM AIP in growth media
[7] = dual-labeled SH1000 (agr type I) biofilm, 50 nM AIP after two days of growth

O[C@@H](CS)[C@@H](O)CS [DTT]
effect on overall protease activity of effluent (extracellular proteases [1]): did not significantly change protease activity

O=C(O)CN(CCOCCOCCN(CC(=O)O)CC(=O)O)CC(=O)O [EGTA]
effect on overall protease activity of effluent (extracellular proteases [1]): negligible effect

O=S(=O)(F)Cc1ccccc1 [PMSF, reference compound]
effect on AIP-I mediated biofilm detachment (S. aureus SH1000 biofilm; 10 mM PMSF in combination with AIP-I versus AIP-I alone): significantly reduced the level of detachment
biomass detached (S. aureus SH1000 biofilm; wild-type biofilm, 10 mM PMSF in combination with 50 nM AIP-I): 48.8% (65.2)
effect on overall protease activity of effluent (extracellular proteases [1]): reduced overall protease activity to almost undetectable levels

CO[C@H]1/C=C/O[C@@]2(C)Oc3c(C)c(O)c4c(O)c(c(/C=N/N5CCN(C)CC5)c(O)c4c3C2=O)NC(=O)/C(C)=C\C=C\[C@H](C)[C@H](O)[C@@H](C)[C@@H](O)[C@@H](C)[C@H](OC(C)=O)[C@@H]1C [rifampicin]
decrease of viable cells ([2]; cells detached by AIP-I, 10 mg/ml rifampicin): 6 log
level of rifampicin killing of the biofilm biomass ([2]; intact biofilm, 100 mg/ml rifampicin): about 2 log units

AIP-I: autoinducing peptide YSTCDFIM (SEQ ID NO: 1), thiolactone bridge between C-terminal residue and internal cysteine (ester (positions not given here); not fully specified (bridges))
concentration of bacteria in the effluent (CFU/ml) (S. aureus SH1000 biofilm; 24-36 hours after AIP-I addition (50 nM), versus buffer): increased markedly
biofilm detachment observed by CLSM (S. aureus SH1000 biofilm; agr deletion mutant (SH1001) biofilm, AIP-I treatment): the mutant biofilm did not disperse
biofilm detachment observed by CLSM (S. aureus SH1000 biofilm; [6]): sloughed off the flow cell over a period of 1-2 days
biomass dispersed / detached (S. aureus SH1000 biofilm; wild-type SH1000, 50 nM AIP-I added to 2-day biofilm, within 48 hrs (day 2 vs day 4), COMSTAT): 91.3 (64.3) %
biomass detached (S. aureus SH1000 biofilm; Δaur mutant biofilm, 50 nM AIP-I): 54.6% (68.1)
biomass detached (S. aureus SH1000 biofilm; Δaur Δspl double mutant biofilm, 50 nM AIP-I): 21.7% (66.6)
biofilm detachment observed by CLSM [3]: robust detachment
induction of agr P3-GFP reporter (agr P3 promoter; agr deletion mutant (SH1001) biofilm with dual reporters, AIP-I): lack of GFP induction
induction of agr P3-GFP reporter (agr P3 promoter; [7]): strong induction of the GFP reporter
protease activity in biofilm effluent (extracellular proteases [4]; agr mutant (SH1001) biofilm supplemented with AIP-I): very low levels of extracellular proteases
protease activity in biofilm effluent relative to biofilm without AIP (extracellular proteases [4]): approximately five-fold

AIP-II: autoinducing peptide GVNACSSLF (SEQ ID NO: 2), thiolactone bridge between C-terminal residue and internal cysteine (ester (positions not given here); not fully specified (bridges))
biofilm detachment observed by CLSM (S. aureus SH1000 biofilm; [6]): the biofilm did not disperse
biofilm detachment observed by CLSM [5]: robust detachment
induction of agr P3-GFP reporter (agr P3 promoter; [7]): failed to induce GFP expression
protease activity in biofilm effluent relative to biofilm without AIP (extracellular proteases [4]): reduced the level of proteolytic activity
